In US20260209260A1, “VECTORIZED NHC IRIDIUM(III) COMPLEXES AND USE THEREOF IN PHOTODYNAMIC THERAPY AND/OR DIAGNOSTIC” (CENTRE NATIONAL DE LA RECHERCHE SCIENTIFIQUE, priority 2022, published 2026):
Values joined by “and” are separate entries in the source; they are usually repeats but may differ in a detail not shown here. Equal entries are not always repeated. Where two headings read alike, the source gives them in different places.

Key:
[1] = system: non-tumor cells (NIH-3T3 and MC3T3); test: Cell viability assay (MTT), summary over the non-tumor models; assay type: cell-based, Murine; conditions: for GI50: blue light 458 nm, read-out: GI50 mean over non-tumor models, irradiated; for mean PI value in NIH-3T3 and MC3T3 non-tumoral cells: dark vs blue light 458 nm
Experimental: Cells were grown in humidified incubators at 37° C. in 5% CO2. Murine MC3T3 osteoblast and NIH-3T3 fibroblast cells-used as non-tumor cell models-were cultured in a-MEM medium and DMEM medium supplemented with 10% fetal bovine serum (FBS) and 1% Penicillin/Streptomycin (P/S) antibiotics, respectively. Human T24 bladder, MGHU3 bladder, Scaber bladder, A549 lung, MCF7 breast, MiaPaCa2 pancreas cancer cells were cultured in DMEM medium supplemented with 10% FBS and 1% P/S antibiotics. […] Human Hela cervix and HepG2 liver cancer cells were cultured EMEM medium supplemented with 10% FBS and 1% P/S antibiotics.
MTT reagent (3-(4,5-dimethylthiazol-2-yl)-2,5-diphenyltetrazolium bromide) was used to determine cell death as originally described by Mosmann. Briefly, cells were seeded from 5,000 to 10,000 cells/well in 24-well plates (1 mL) depending on the cell type and allowed to attach overnight. The complexes were prepared in DMSO. The concentration of the complexes was calculated based on the elemental composition of the complexes determined by the elemental analyses. All cell viability experiments were carried out with a fixed concentration of 0.1% (v/v) DMSO. After 72 h of treatment, cells were incubated at 37° C. and 5% CO2 with 25 μL of MTT solution (5 mg/ml; Sigma-Aldrich) in 24-well plates for 3 to 4 h. After solubilization with 500 μL of DMSO, formazan was quantified spectrophotometrically with a microplate reader at 570 nm absorbance (ClarioSTAR, BMG LabTech). […] All the results were calculated from data obtained in at least three independent experiments performed in triplicate.
Two sets of experiments were conducted in parallel for each complex to be studied:
1. The cells were incubated with the different complexes (in the dark) for 72 h.
2. The cells were incubated for 8 h with the different complexes (in the dark), then irradiated for 10 min, followed by an incubation in the dark up to 72 h.

[2] = system: cancer cells (all tumor cell lines tested); test: Cell viability assay (MTT), summary over the cancer cell lines tested; assay type: cell-based, Human; conditions: for PI values, mean over cancer cells: dark vs blue light 458 nm
Procedure, shortened: (§1)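 72 h continuous exposure in the dark, or 8 h dark incubation then 10 min irradiation and dark incubation up to 72 h; 0.1% (v/v) DMSO throughout. Viability read by MTT, formazan absorbance at 570 nm. At least three independent experiments in triplicate.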

[3] = system: C4-2B prostate cancer cells (PSMA-positive); test: Cell viability assay (MTT), dark and blue light; assay type: cell-based, Human; conditions: for Photosensitizing index (PI): dark vs blue light; for SI (vs MC3T3) C4-2b Blue / SI (vs NIH-3T3) C4-2b Blue: blue light 458 nm
Procedure, shortened: (§2)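 Dark versus photoactivated cytotoxicity is compared by MTT in RPMI-grown cells, with 72 h total compound exposure at 0.1% DMSO. Blue light (458 nm) is given for 10 min after an 8 h incubation; data come from at least three independent triplicate experiments.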

[4] = system: PC-3 prostate cancer cells (PSMA-negative); test: Cell viability assay (MTT), dark and blue light; assay type: cell-based, Human; conditions: for Photosensitizing index (PI): PC3, dark vs blue light
Procedure, shortened: as §2

[5] = system: 22rV1 prostate cancer cells (PSMA-positive); test: Cell viability assay (MTT), dark and blue light; assay type: cell-based, Human; conditions: for Photosensitizing index (PI): 22Rv1, dark vs blue light
Procedure, shortened: as §2

A549 lung cancer cells = test: Cell viability assay (MTT), dark and blue light; assay type: cell-based, Human; conditions: for GI50: read-out: GI50; for Photosensitizing index (PI): A549, dark vs blue light
Procedure, shortened: as §1

T24 bladder cancer cells = test: Cell viability assay (MTT), dark and blue light; assay type: cell-based, Human; conditions: for GI50: read-out: GI50; for Photosensitizing index (PI): T24, dark vs blue light
Procedure, shortened: as §1

MCF7 breast cancer cells = test: Cell viability assay (MTT), dark and blue light; assay type: cell-based, Human; conditions: for GI50: read-out: GI50; for Photosensitizing index (PI): MCF7, dark vs blue light
Procedure, shortened: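 Cells seeded 5,000–10,000/well, treated in 0.1% (v/v) DMSO either 72 h in dark or 8 h dark, 10 min 458 nm blue LED irradiation (9.6 W), then dark to 72 h. Viability by MTT, absorbance 570 nm; at least three independent experiments in triplicate.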

[6] = C4-2b, blue light, read-out: GI50
[7] = 8 h in the dark, blue light 458 nm 10 min, then dark up to 72 h, read-out: GI50 PC-3 Blue
[8] = PC3, blue light, read-out: GI50
[9] = in the dark, 72 h, read-out: GI50 PC-3 Dark
[10] = 22Rv1, blue light, read-out: GI50
[11] = 8 h in the dark, blue light 458 nm 10 min, then dark up to 72 h, read-out: GI50 22Rv1 Blue
[12] = in the dark, 72 h, read-out: GI50 22Rv1 Dark

SMILES: F[P-](F)(F)(F)(F)F.O=C(O)CC[C@H](NC(=O)N[C@@H](CCCCNC(=O)CCn1cc[n+]2[c]1[Ir-3]13([c]4ccccc4-c4c5ccccc5cc[n+]41)([c]1ccccc1-c1c4ccccc4cc[n+]13)[n+]1ccccc1-2)C(=O)O)C(=O)O [III-h]
- GI50 [1]: 22.8 µM
- selectivity for cancer cells over non-tumor cells, in words [2]: most selective effects under irradiated conditions
- GI50 ([3]; 8 h in the dark, blue light 458 nm 10 min, then dark up to 72 h, read-out: GI50 C4-2b Blue): 0.31 µM
- GI50 [3, 6]: 0.31 µM
- Photosensitizing index (PI) ([3]; C4-2b): 12.9
- GI50 ([3]; C4-2b, dark, read-out: GI50): 4 µM
- SI (vs MC3T3) C4-2b Blue [3]: 27.0
- SI (vs NIH-3T3) C4-2b Blue [3]: 61.9
- SI (vs MC3T3) C4-2b Dark ([3]; dark): 13.0
- GI50 [4, 7]: 0.68 µM
- GI50 [4, 8]: 0.68 µM
- Photosensitizing index (PI) [4]: 31.2
- GI50 ([4]; PC3, dark, read-out: GI50): 21.2 µM
- SI (vs MC3T3) PC-3 Blue ([4]; blue light 458 nm): 12.2
- SI (vs NIH-3T3) PC-3 Blue ([4]; blue light 458 nm): 28.0
- GI50 [4, 9]: 21.2 µM
- GI50 [5, 10]: 0.14 µM
- Photosensitizing index (PI) [5]: 29.3
- GI50 ([5]; 22Rv1, dark, read-out: GI50): 4.1 µM
- GI50 [5, 11]: 0.14 µM
- SI (vs NIH-3T3) 22Rv1 Blue ([5]; blue light 458 nm): 131.9
- SI (vs MC3T3) 22Rv1 Dark ([5]; dark): 12.9
- SI (vs NIH-3T3) 22Rv1 Dark ([5]; dark): >25
- GI50 [5, 12]: 4.1 µM

SMILES: F[P-](F)(F)(F)(F)F.O=C(O)CC[C@H](NC(=O)N[C@@H](CCCCNC(=O)CCn1cc[n+]2[c]1[Ir-3]13([c]4ccccc4-c4sc5ccccc5[n+]41)([c]1ccccc1-c1sc4ccccc4[n+]13)[n+]1ccccc1-2)C(=O)O)C(=O)O [III-k]
- GI50 [1]: 22.8 µM
- selectivity for cancer cells over non-tumor cells, in words [2]: most selective effects under irradiated conditions
- GI50 [3, 6]: 0.41 µM
- Photosensitizing index (PI) ([3]; C4-2b): 12.9
- GI50 ([3]; C4-2b, dark, read-out: GI50): 5.3 µM
- SI (vs MC3T3) C4-2b Blue [3]: 83.3
- SI (vs NIH-3T3) C4-2b Blue [3]: 73.9
- SI (vs MC3T3) C4-2b Dark ([3]; dark): 17.9
- GI50 ([3]; in the dark, 72 h, read-out: GI50 C4-2b Dark): 5.3 µM
- GI50 [4, 7]: 2.1 µM
- GI50 [4, 8]: 2.1 µM
- Photosensitizing index (PI) [4]: 4.6
- GI50 ([4]; PC3, dark, read-out: GI50): 9.6 µM
- SI (vs NIH-3T3) PC-3 Blue ([4]; blue light 458 nm): 14.3
- SI (vs MC3T3) PC-3 Dark ([4]; dark): 9.9
- GI50 [4, 9]: 9.8 µM
- GI50 [5, 10]: 0.39 µM
- Photosensitizing index (PI) [5]: 13.1
- GI50 ([5]; 22Rv1, dark, read-out: GI50): 5.1 µM
- GI50 [5, 11]: 8.39 µM
- SI (vs MC3T3) 22Rv1 Blue ([5]; blue light 458 nm): 87.1
- SI (vs NIH-3T3) 22Rv1 Blue ([5]; blue light 458 nm): 77.3
- SI (vs MC3T3) 22Rv1 Dark ([5]; dark): 18.8
- GI50 [5, 12]: 5.1 µM

SMILES: F[P-](F)(F)(F)(F)F.O=C(NCCCn1cc[n+]2[c]1[Ir-3]13([c]4c(sc5ccccc45)-c4cccc[n+]41)([c]1c(sc4ccccc14)-c1cccc[n+]13)[n+]1ccccc1-2)[c-]1cccc1.[Fe+2].c1cc[cH-]c1 [IV-j]
- GI50 [1]: 8.4 µM
- mean PI value in NIH-3T3 and MC3T3 non-tumoral cells [1]: 2.8 fold
- selectivity for cancer cells over non-tumor cells, in words [2]: most selective effects under irradiated conditions
- GI50 ([2]; blue light 458 nm, read-out: GI50 mean over cancer cells, irradiated): 0.228 µM
- PI values, mean over cancer cells [2]: 39.8 fold
- increase in cell toxicity in cancer cells compared to non-tumor models ([2]; irradiated conditions): 39 fold
- GI50 (A549 lung cancer cells; A549, blue light): 0.37 µM
- SI (vs MC3T3) (A549 lung cancer cells; A549, dark): 2.5
- SI (vs NIH-3T3) (A549 lung cancer cells; A549, dark): 9.7
- Photosensitizing index (PI) (A549 lung cancer cells): 17.6
- GI50 (A549 lung cancer cells; A549, dark): 6.5 µM
- SI (vs NIH-3T3) (T24 bladder cancer cells; T24, blue light): 108.5
- GI50 (T24 bladder cancer cells; T24, blue light): 0.13 µM
- SI (vs NIH-3T3) (T24 bladder cancer cells; T24, dark): 22.7
- Photosensitizing index (PI) (T24 bladder cancer cells): 21.5
- GI50 (T24 bladder cancer cells; T24, dark): 2.8 µM
- SI (vs MC3T3) ([4]; PC3, dark): 2.2
- Photosensitizing index (PI) [4]: 121.7
- GI50 ([4]; PC3, dark, read-out: GI50): 7.3 µM
- GI50 (MCF7 breast cancer cells; MCF7, blue light): 0.72 µM and 0.42 µM
- SI (vs NIH-3T3) (MCF7 breast cancer cells; MCF7, dark): 9.5
- Photosensitizing index (PI) (MCF7 breast cancer cells): 15.7
- GI50 (MCF7 breast cancer cells; MCF7, dark): 6.6 µM

SMILES: F[P-](F)(F)(F)(F)F.O=C(NCCCn1cc[n+]2[c]1[Ir-3]13([c]4ccccc4-c4sc5ccccc5[n+]41)([c]1ccccc1-c1sc4ccccc4[n+]13)[n+]1ccccc1-2)[c-]1cccc1.[Fe+2].c1cc[cH-]c1 [IV-k]
- mean PI value in NIH-3T3 and MC3T3 non-tumoral cells [1]: 2.8 fold
- PI values, mean over cancer cells [2]: 1.8 fold
- SI (vs MC3T3) (A549 lung cancer cells; A549, blue light): 15.0
- SI (vs NIH-3T3) (A549 lung cancer cells; A549, blue light): 34.2
- GI50 (A549 lung cancer cells; A549, blue light): 0.34 µM
- SI (vs MC3T3) (A549 lung cancer cells; A549, dark): 2.7
- Photosensitizing index (PI) (A549 lung cancer cells): 11.2
- GI50 (A549 lung cancer cells; A549, dark): 3.8 µM
- SI (vs MC3T3) (T24 bladder cancer cells; T24, blue light): 27.0
- SI (vs MC3T3) (T24 bladder cancer cells; T24, dark): 11.4
- SI (vs NIH-3T3) (T24 bladder cancer cells; T24, dark): 20.9
- Photosensitizing index (PI) (T24 bladder cancer cells): 4.7
- SI (vs MC3T3) ([4]; PC3, blue light): 37.0
- SI (vs NIH-3T3) ([4]; PC3, dark): 17.3
- Photosensitizing index (PI) [4]: 7.9
- GI50 ([4]; PC3, dark, read-out: GI50): 1.1 µM
- SI (vs MC3T3) (MCF7 breast cancer cells; MCF7, blue light): 8.2
- SI (vs NIH-3T3) (MCF7 breast cancer cells; MCF7, blue light): 18.7
- GI50 (MCF7 breast cancer cells; MCF7, blue light): 0.62 µM
- SI (vs MC3T3) (MCF7 breast cancer cells; MCF7, dark): 1.8
- SI (vs NIH-3T3) (MCF7 breast cancer cells; MCF7, dark): 3.2
- Photosensitizing index (PI) (MCF7 breast cancer cells): 9.4
- GI50 (MCF7 breast cancer cells; MCF7, dark): 6.8 µM and 5.8 µM
